# Experimental data published in US11370785B2, “Multicyclic compounds as farnesoid X receptor modulators” (BRISTOL-MYERS SQUIBB COMPANY, priority 2017, dated 2022).
# Biological target: T1, human FXR (Homo sapiens, UniProt Q96RI1)
# T1 construct: expressed in transfected cells; host or cells: HEK293 cells stably carrying a 5xGal4-response-element firefly luciferase reporter, transiently transfected with the pcDNA3.1-Gal4-FXR plasmid
# T1 sequence (Q96RI1 262-486 limits assumed): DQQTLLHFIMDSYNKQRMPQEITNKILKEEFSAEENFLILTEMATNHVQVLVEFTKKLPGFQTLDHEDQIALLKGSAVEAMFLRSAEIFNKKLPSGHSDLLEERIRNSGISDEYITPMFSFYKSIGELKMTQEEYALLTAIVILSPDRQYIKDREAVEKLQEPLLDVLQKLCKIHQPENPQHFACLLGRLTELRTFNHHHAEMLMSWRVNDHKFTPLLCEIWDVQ
# Assay: transient human FXR/Gal4-luciferase reporter assay
# Format: cell-based
# Conditions: Gal4-hFXR reporter in HEK293 cells; relative to 8 μM GW-4064; read-out: FXR EC50
# Procedure: The exemplified compounds of the present invention were tested in the transient human FXR/Gal4-luciferase reporter assay, and assay results were reported in Table 1 together with other analytical data.
# A Gal4-hFXR fusion construct reporter system was used as the primary assay to characterize compound activity. A construct including 5 copies of the Gal4 promoter response element upstream of a firefly luciferase reporter cDNA was stably expressed in HEK293 cells. This reporter cell line was maintained in Dulbecco's Modified Eagle's medium (DMEM; Gibco) supplemented with 1% penicillin-streptomycin (P/S) solution, 500 μg/mL Zeocin and 10% charcoal/dextran-treated fetal bovine serum (cs-FBS) at 37° C. in a humidified 5% CO2 atmosphere. Another plasmid was constructed in which the human cytomegalovirus promoter in the pcDNA3.1 vector directs the expression of the cDNA encoding a fusion protein comprised of the DNA binding domain from the Gal4 transcription factor fused to the ligand binding domain from human FXR.
# The day prior to transfection, the reporter cells in culture are detached from the plate with trypsin and plated into a T75 flask at a sufficient density to achieve approximately 90% confluence the next morning. The transfection reagents are prepared by separately diluting 25 μg of the pcDNA3.1-Gal4-FXR plasmid into 1.87 mL of Opti-MEM (Thermo-Fisher), and 40 μL of Lipofectamine 2000 (Thermo-Fisher) into 1.87 mL of Opti-MEM, and then adding the diluted DNA solution into the diluted Lipofectamine 2000 solution and incubating at room temperature for 15-20 minutes. The mixture is further diluted with 10 mL of a solution comprised of DMEM, 10% cs-FBS, and 1% P/S immediately prior to transferring to the cells. The maintenance culture media is aspirated from the cells and the final transfection mixture is added before the cells are incubated overnight at 37° C. in a humidified 5% CO2 atmosphere. This protocol can be scaled up, and the transiently transfected cells can be cryopreserved in an assay-ready format.
# For compound testing, 100 nL of the compounds (serial dilutions in DMSO) are dispensed with an Echo acoustic dispenser (Labcyte) into the wells of a Corning/Costar clear bottom 384-well white plate. The transfected cells are harvested, counted, and diluted such that 10-25,000 cells in 25 μL are plated into each well of the 384-well compound assay plate. The compound-treated cells are incubated overnight at 37° C. in a humidified 5% CO2 atmosphere. The next morning 25 μL of Steady-Glo (Promega) are added to each well of the plate, the mixture is incubated for 15 min. with shaking, and luminescence is measured on an Envision (Perkin Elmer) plate reader. Background counts from cells treated with DMSO alone are subtracted from all raw counts, and the corrected values are converted to a percentage of the control response attained with 8 μM GW-4064.
row,SMILES,EC50 [nM]
1,O=C(O)c1cc(OCCO)c2cc(N3CCC4(CC3)CC(=Cc3c(-c5ccccc5C(F)(F)F)noc3C3CC3)C4)ccc2n1 [Example 92],450
2,COc1cc(N2CCC3(CC2)CC(Cc2c(-c4c(Cl)cccc4Cl)noc2C2CC2)C3)ccc1OCC(=O)O [Example 93],505
3,O=C(O)c1cc(OCCO)c2cc(N3CCC4(CC3)CC(Cc3c(-c5ccccc5C(F)(F)F)noc3C3CC3)C4)ccc2n1 [Example 94],472
4,O=C(O)c1cc(OCCO)c2cc(N3CCC4(CC3)CC(=Cc3c(-c5c(Cl)cncc5Cl)noc3C3CC3)C4)ccc2n1 [Example 95],200
5,CCc1cc(N2CCC3(CC2)CC(Cc2c(-c4c(Cl)cccc4Cl)noc2C2CC2)C3)ccc1OCC(=O)O [Example 96],793
6,COCCOc1cc(C(=O)O)nc2ccc(N3CCC4(CC3)CC(Cc3c(-c5ccccc5C(F)(F)F)noc3C3CC3)C4)cc12 [Example 97],73
7,COCCOc1cc(C(=O)O)nc2ccc(N3CCC4(CC3)CC(=Cc3c(-c5ccccc5C(F)(F)F)noc3C3CC3)C4)cc12 [Example 98],38
8,CCOc1cc(C(=O)O)nc2ccc(N3CCC4(CC3)CC(Cc3c(-c5ccccc5C(F)(F)F)noc3C3CC3)C4)cc12 [Example 99],17
9,CCOc1cc(C(=O)O)nc2ccc(N3CCC4(CC3)CC(=Cc3c(-c5ccccc5C(F)(F)F)noc3C3CC3)C4)cc12 [Example 100],18
10,O=C(O)c1cc(OC(F)(F)F)c2nc(N3CCC4(CC3)CC(=Cc3c(-c5c(Cl)cncc5Cl)noc3C3CC3)C4)sc2c1 [Example 101],33
11,COc1cc2nc(N3CCC4(CC3)CC(=Cc3c(-c5c(Cl)cncc5Cl)noc3C3CC3)C4)sc2cc1C(=O)O [Example 102],157
12,O=C(O)c1ccc2sc(N3CCC4(CC3)CC(=Cc3c(-c5c(Cl)cncc5Cl)noc3C3CC3)C4)nc2c1 [Example 103],249
13,COc1cc2nc(N3CCC4(CC3)CC(=Cc3c(-c5ccccc5C(F)(F)F)noc3C3CC3)C4)sc2cc1C(=O)O [Example 104],667
14,COc1cc2nc(N3CCC4(CC3)CC(Cc3c(-c5ccccc5C(F)(F)F)noc3C3CC3)C4)sc2cc1C(=O)O [Example 105],228
15,O=C(O)c1cc(C(F)(F)F)c2cc(N3CCC4(CC3)CC(=Cc3c(C(C5CC5)C5CC5)noc3C3CC3)C4)ccc2n1 [Example 106],1420
16,COc1cc(C(=O)O)nc2ccc(N3CCC4(CC3)CC(=Cc3c(C(C5CC5)C5CC5)noc3C3CC3)C4)cc12 [Example 107],1550
17,O=C(O)c1cc(OC2CCC2)c2cc(N3CCC4(CC3)CC(=Cc3c(-c5ccccc5C(F)(F)F)noc3C3CC3)C4)ccc2n1 [Example 108],4
18,O=C(O)c1cc(OC2CCC2)c2cc(N3CCC4(CC3)CC(Cc3c(-c5ccccc5C(F)(F)F)noc3C3CC3)C4)ccc2n1 [Example 109],33
19,COCCOc1cc(C(=O)O)nc2ccc(N3CCC4(CC3)CC(=Cc3c(-c5ccccc5OC(F)(F)F)noc3C3CC3)C4)cc12 [Example 110],634
20,CC(C)(C)OC(=O)N1c2ccc(N3CCC4(CC3)CC(=Cc3c(-c5ccccc5OC(F)(F)F)noc3C3CC3)C4)cc2CCC1C(=O)O (stereo not shown) [Example 111],481
21,O=C(O)C1CCc2cc(N3CCC4(CC3)CC(=Cc3c(-c5ccccc5OC(F)(F)F)noc3C3CC3)C4)ccc2N1 (stereo not shown) [Example 112],1030
22,O=C(O)c1ccc2nc(N3CCC4(CC3)CC(=Cc3c(-c5ccccc5C(F)(F)F)noc3C3CC3)C4)sc2n1 [Example 113],1240
23,O=C(O)c1ccc2nc(N3CCC4(CC3)CC(Cc3c(-c5ccccc5C(F)(F)F)noc3C3CC3)C4)sc2n1 [Example 114],744

row,SMILES,EC50 [nM]
1,O=C(O)c1cc(OC2CCC2)c2cc(N3CCC4(CC3)CC(=Cc3c(-c5ccccc5OC(F)(F)F)noc3C3CC3)C4)ccc2n1 [Example 115],64
2,O=C(O)c1cc(OC2CCC2)c2cc(N3CCC4(CC3)CC(Cc3c(-c5ccccc5OC(F)(F)F)noc3C3CC3)C4)ccc2n1 [Example 116],14
3,COc1ccc(C(=O)O)c2ccc(N3CCC4(CC3)CC(=Cc3c(-c5ccccc5C(F)(F)F)noc3C3CC3)C4)nc12 [Example 117],241
4,COc1ccc(C(=O)O)c2ccc(N3CCC4(CC3)CC(Cc3c(-c5ccccc5C(F)(F)F)noc3C3CC3)C4)nc12 [Example 118],191
5,COc1ccc(C(=O)O)c2ccc(N3CCC4(CC3)CC(=Cc3c(-c5c(Cl)cncc5Cl)noc3C3CC3)C4)nc12 [Example 119],336
6,O=C(O)c1cc(OC2CCCC2)c2cc(N3CCC4(CC3)CC(=Cc3c(-c5ccccc5C(F)(F)F)noc3C3CC3)C4)ccc2n1 [Example 120],3
7,O=C(O)c1cc(OC2CCCC2)c2cc(N3CCC4(CC3)CC(=Cc3c(-c5ccccc5OC(F)(F)F)noc3C3CC3)C4)ccc2n1 [Example 121],16
8,O=C(O)c1cc(OC2CCCC2)c2cc(N3CCC4(CC3)CC(Cc3c(-c5ccccc5OC(F)(F)F)noc3C3CC3)C4)ccc2n1 [Example 122],16
9,O=C(O)c1cc(OC2CCCC2)c2cc(N3CCC4(CC3)CC(Cc3c(-c5ccccc5C(F)(F)F)noc3C3CC3)C4)ccc2n1 [Example 123],6
10,O=C(O)c1cc(OC2CCC2)c2cc(N3CCC4(CC3)CC(=Cc3c(-c5c(Cl)cncc5Cl)noc3C3CC3)C4)ccc2n1 [Example 124],14
11,O=C(O)c1cc(OC2CCCC2)c2cc(N3CCC4(CC3)CC(=Cc3c(-c5c(Cl)cncc5Cl)noc3C3CC3)C4)ccc2n1 [Example 125],15
12,O=C(O)c1cc(F)c2nc(N3CCC4(CC3)CC(=Cc3c(-c5c(Cl)cccc5Cl)noc3C(F)(F)F)C4)sc2c1 [Example 126],68
13,O=C(O)c1cc(F)c2nc(N3CCC4(CC3)CC(=Cc3c(-c5ccncc5C(F)(F)F)noc3C3CC3)C4)sc2c1 [Example 127],198
14,O=C(O)c1cc(C(F)(F)F)c2cc(N3CCC4(CC3)CC(=Cc3c(-c5ccncc5C(F)(F)F)noc3C3CC3)C4)ccc2n1 [Example 128],19
15,CCOC(=O)c1cc(C(F)(F)F)c2cc(N3CCC4(CC3)CC(Cc3c(-c5ccccc5C(F)(F)F)noc3C3CC3)C4)ccc2n1 [Example 129],125
16,O=C(O)c1cc(F)c2nc(N3CCC4(CC3)CC(=Cc3c(-c5c(Cl)cccc5Cl)noc3C3CC3)C4)sc2c1 [Example 130],260
17,O=C(O)c1cc(F)c2nc(N3CCC4(CC(=Cc5c(-c6c(Cl)cccc6Cl)noc5C5CC5)C4)C3)sc2c1 (stereo not shown) [Example 131],72
18,O=C(O)c1ccc(N2CCC3(CC(=Cc4c(-c5c(Cl)cccc5Cl)noc4C4CC4)C3)C2)nc1 (stereo not shown) [Example 132],514
19,O=C(O)c1cc(C(F)(F)F)c2cc(N3CCC4(CC3)CC(=Cc3c(-c5c(Cl)cccc5Cl)noc3C(F)(F)F)C4)ccc2n1 [Example 136],27
20,O=C(O)c1cc(OC2COC2)c2cc(N3CCC4(CC3)CC(=Cc3c(-c5ccccc5C(F)(F)F)noc3C3CC3)C4)ccc2n1 [Example 137],78
21,O=C(O)c1cc(OC2COC2)c2cc(N3CCC4(CC3)CC(Cc3c(-c5ccccc5C(F)(F)F)noc3C3CC3)C4)ccc2n1 [Example 138],23
22,O=C(O)c1cc(OC2COC2)c2cc(N3CCC4(CC3)CC(=Cc3c(-c5c(Cl)cncc5Cl)noc3C3CC3)C4)ccc2n1 [Example 139],47
23,COc1cc(C(=O)O)nc2ccc(N3CCC4(CC3)CC(=Cc3c(-c5c(Cl)cccc5Cl)noc3C(F)(F)F)C4)cc12 [Example 140],4
